Assay results reported in US20070092551A1, “Therapeutic agent” (TAKARA BIO INC., priority 2003, published 2007).

System: mature adipocytes (3T3-L1 cells)
Test: Enhancing action on glucose uptake (2-deoxyglucose) into mature adipocytes
Assay type: cell-based
Conditions: Mus musculus, 3T3-L1, X=(S−N)/(P−N) of 2-deoxyglucose uptake, P=insulin 1 μg/mL, read-out: Enhancing Action on Glucose Uptake
Method: The induction of differentation into nature adipocytes was carried out by partially modifying the above-mentioned method of Rubin C. S. et al. 3T3-L1 cells (ATCC CCL-92.1) were suspended in a 10% fetal bovine serum (manufactured by Bio Whittaker)-containing Dulbecco's modified Eagle's medium (manufactured by Sigma, D6046) containing 200 μM ascorbic acid so as to have a density of 4×10^3 cells/mL, and the suspension was put in each well of a collagen type I-coated 12-well plate (Iwaki Glass Co., Ltd., code 4815-010) in an amount of 2 mL per well. The cells were cultured at 37° C. for 7 days in the presence of 5% carbon dioxide gas. On the seventh day, the medium was exchanged with 2 mL of a 10% fetal bovine serum (manufactured by Bio Whittaker)-containing Dulbecco's modified Eagle's medium containing 200 μM ascorbic acid, 0.25 μM dexamethasone, 10 μg/mL insulin (manufactured by TAKARA BIO INC.) and 0.5 mM 3-isobutyl-1-methylxanthine (manufactured by nacalai tesque, 19624-86). After 45 hours, the medium was exchanged with 2 mL of a 10% fetal bovine serum-containing Dulbecco's modified Eagle's medium containing 200 μM ascorbic acid and 5 μg/mL insulin. The medium was exchanged on after 2 days and 5 days, and the cells were cultured for 7 days, to give mature adipocytes.
As the evaluation of the enhancing action on glucose uptake, and also as the evaluation of the insulin-mimetic action, the amount of 2-deoxyglucose uptake into mature adipocytes during the stimulation of the test compound in the adipocytes was determined. As a test compound, a compound prepared in the Examples mentioned above or a commercially available compound was used.
After the termination of the culture, the medium was removed, and the cells were washed twice with a 0.1% (w/v) bovine serum albumin (manufactured by Sigma, A8022)-containing Dulbecco's modified Eagle's medium. Thereafter, 1 mL of the same medium containing a test compound in a concentration shown in each of Tables 20 to 23 was put to each well. The cells were cultured overnight at 37° C. in the presence of 5% carbon dioxide gas. Here, a group without containing the test compound was set as a negative control. After the overnight culture, the cells were washed twice with a HEPES buffer (140 mM NaCl, 5 mM KCl, 2.5 mM MgSO4, 1 mM CaCl2, 20 mM HEPES-Na (pH 7.4)). The amount 0.9 mL of the buffer containing a test compound in the same concentration was added to each well. The cells were cultured at 37° C. for 75 minutes. During the culture, as a positive control, there was set a group with addition of insulin to the well without addition of a test compound at a point 45 minutes passed so as to have a final concentration of 1 μg/mL. Thereafter, 100 μL of a HEPES buffer containing 0.5 μCi/mL 2-deoxy-[1,2-^3H(N)]-glucose (manufactured by PerkinElmer Life Sciences Inc., NET549A) and 1 mM 2-deoxyglucose (manufactured by nacalai tesque, 10722-11) was added thereto. The cells were cultured at 37° C. for additional 10 minutes. After the termination of the culture, the supernatant was removed, and the cells were washed three times with a phosphate buffer cooled to 4° C. Thereafter, 0.5 mL of a 1% Nonidet P-40-containing phosphate buffer was added to lyse the cells, whereby 2-deoxy-[1,2-^3H(N)]-glucose subjected to uptake into the cells was eluted. The radioactivity was determined with a liquid scintillation counter LS6500 (manufactured by Beckmann) using 25 μL of the supernatant with Ultima Gold (manufactured by PerkinElmer Life Sciences Inc., 6013329) as a scintillation cocktail. The enhancing action on glucose uptake was calculated by the following calculation formula, and shown by four ranks of +++, ++, + and +/−. • S: Amount of 2-deoxyglucose uptake in the presence of a test compound; • N: Amount of 2-deoxyglucose uptake in the negative control; and • P: Amount of 2-deoxyglucose uptake in the positive control; X=(S−N)/(P−N) (Judgment of Enhancing Action for 2-Deoxyglucose Uptake)

Row | Structure (SMILES) | activation at 10 µM | activation at 30 µM | activation at 3 µM
1 | COc1ccc(C=O)c(O)c1 [2-Hydroxy-4-methoxybenzaldehyde] | 15 to 30% | 30 to 60% | –
2 | O=C(/C=C/c1ccccc1)c1ccccc1 [Chalcone] | 30 to 60% | 30 to 60% | –
3 | O=C(/C=C/c1ccc(O)c(O)c1)c1ccccc1O [Compound (C005), 3,4,2′-trihydroxychalcone] | 30 to 60% | 30 to 60% | –
4 | O=C(/C=C/c1ccc(O)c(O)c1)c1cc(O)ccc1O [Compound (C006), 3,4,2′,5′-tetrahydroxychalcone] | 30 to 60% | – | –
5 | O=C(/C=C/c1ccc(O)c(O)c1)c1ccc(Cl)cc1Cl [Compound (C011), 3,4-dihydroxy-2′,4′-dichlorochalcone] | 60 to 100% | > 100% | 15 to 30%
6 | CC(=O)c1cc(CC=C(C)C)c(O)cc1O [Compound (C025), 2′,4′-dihydroxy-5′-prenylacetophenone] | 15 to 30% | 30 to 60% | –
7 | COc1ccc(C(=O)/C=C/c2ccc(OC3CCCCO3)cc2)c(O)c1CC=C(C)C (stereo not shown) [Compound (C030), 4-tetrahydropyranyloxy-2′-hydroxy-3′-prenyl-4′-methoxychalcone] | 30 to 60% | > 100% | –
8 | COc1ccc(C(=O)/C=C/c2ccc(O)c(O)c2)c(O)c1CC=C(C)C [Compound (C031), 3,4,2′-trihydroxy-3′-prenyl-4′-methoxychalcone] | 15 to 30% | > 100% | –
9 | COc1ccc(C(=O)/C=C/c2ccc(O)cc2)c(O)c1CCC(C)C [Compound (C043), 4,2′-dihydroxy-3′-(3-methylbutyl)-4′-methoxychalcone] | > 100% | – | 15 to 30%
10 | CC(=O)c1ccc(OC2CCCCO2)c(C/C=C(\C)CCC=C(C)C)c1O (stereo not shown) [Compound (C045), 2′-hydroxy-3′-geranyl-4′-tetrahydropyranyloxyacetophenone] | 15 to 30% | 30 to 60% | –
11 | CCOc1ccc(C(=O)/C=C/c2ccc(O)cc2)c(O)c1C/C=C(\C)CCC=C(C)C [Compound (C050), 4,2′-dihydroxy-3′-geranyl-4′-ethoxychalcone] | > 100% | – | 15 to 30%
12 | COc1ccc(C(=O)/C=C/c2ccc(O)cc2)c(O)c1C/C=C(\C)CC/C=C(\C)CCC=C(C)C [Compound (C053), 4,2′-dihydroxy-3′-farnesyl-4′-methoxychalcone] | > 100% | > 100% | 30 to 60%
13 | CC(C)=CCC/C(C)=C/CC/C(C)=C/Cc1c(O)ccc(C(=O)/C=C/c2ccc(O)cc2)c1O [Compound (C058), 4,2′,4′-trihydroxy-3′-farnesylchalcone] | – | > 100% | –
14 | COc1ccc(C(=O)/C=C/C=C/c2ccccc2)c(O)c1CC=C(C)C [Compound (C-CIN), 1-(2-hydroxy-4-methoxy-3-prenylphenyl)-5-phenyl-2,4-pentadien-1-one] | 15 to 30% | > 100% | 15 to 30%
15 | COc1ccc2c(c1CC=C(C)C)OC(c1ccco1)C(=Cc1ccco1)C2=O (stereo not shown) [Compound (FUR-2), 2-(2-furyl)-3-(2-furylmethylene)-2,3-dihydro-7-methoxy-8-prenyl-4H-1-benzopyran-4-one] | 30 to 60% | 30 to 60% | 15 to 30%
16 | C/C=C(/C)C(=O)OC1c2c(ccc3ccc(=O)oc23)OC(C)(C)C1OC(C)=O (stereo not shown) [Coumarin Compound A, 3′-acetoxy-4′-angeloyloxy-3′,4′-dihydroseselin] | > 100% | > 100% | –
17 | C/C=C(/C)C(=O)OC1Cc2c(ccc3ccc(=O)oc23)OC1(C)C (stereo not shown) [Coumarin Compound B, 3′-angeloyloxy-3′,4′-dihydroseselin] | > 100% | > 100% | –
18 | C/C=C(/C)C(=O)OC1C(O)c2c(ccc3ccc(=O)oc23)OC1(C)C (stereo not shown) [Coumarin Compound C, 3′-angeloyloxy-4′-hydroxy-3′,4′-dihydroseselin] | – | 30 to 60% | –
